Laboratory results taken from patent publication US8106047B2, “Triazolophthalazines” (NYCOMED GmbH, priority 2005, dated 2012).

Legend:
[1] = system: HUVEC monolayers; assay: Inhibition of macromolecule (HRP) permeability of thrombin-stimulated HUVEC monolayers; type: cell-based, human; conditions: Homo sapiens, 1 h; HUVEC on Transwells, 1 μM RP73401, 10 μM Motapizone, 1 mM SNP or 100 nM ANP, 1 U/ml thrombin, HRP passage after 60 min; read-out: Inhibition of SNP- or ANP-induced permeability, −log IC50 [mol/l] (converted)
Description: Method to Assess Inhibition of Macromolecule Permeability of HUVEC Monolayers
The procedure to measure macromolecule permeability of endothelial cell monolayers followed the method described by Langeler & van Hinsbergh (1988) with modifications. Human umbilical vein endothelial cells were isolated from umbilical cords according to standard procedures (Jaffe et al. 1973) and cultured in endothelial cell basal medium (EBM) supplemented with 2% FCS, 0.5 ng/ml VEGF, 10 ng/ml bFGF, 5 ng/ml EGF, 20 ng/ml Long R3 IGF-1, 0.2 μg/ml hydrocortisone, 1 μg/ml ascorbic acid, 22.5 μg/ml heparin, 50 μg/ml gentamicin, 50 ng/ml amphotericin B (EGM2 purchased from Promocell GmbH, Heidelberg, Germany). At confluency, cells were trypsinized and replated at 73000 cells per well on 3 μm polycarbonate filter Transwell inserts (Costar GmbH, Bodenheim, Germany) precoated with 10 μg cm^2−1 Fibronectin (Sigma, Taufkirchen, Germany). HUVECs were cultured in EGM2 (100 μl in the upper wells and 600 μl in the lower wells) over four days prior the experiments and medium was changed every other day. At the day of the experiment culture medium was replaced by M199 with 1% human serum albumin. Endothelial cells were preincubated with cyclic nucleotide modifiers (the selective PDE3 inhibitor motapizone, the selective PDE4 inhibitor RP73401, the cGMP generators ANP or SNP and PDE2 inhibitors) for 15 min. HUVECs were then stimulated with Thrombin (1 U ml^−1) (Sigma, Taufkichen, Germany) and horsh radish peroxidase (5 μg/ml) (Sigma, Taufkirchen, Germany) as the macromolecule marker protein was added to the upper wells. Following 1 h incubation time Transwells were removed and the activity of horsh radish peroxidase that penetrated the endothelial cell monolayer was measured in the lower wells with the 3,3′,5,5′-tetramethylbenzidine liquid substrate system from Sigma (Taufkirchen, Germany).
In parallel, compounds according to the invention can inhibit Thrombin-induced permeability of HUVEC monolayers for horsh radish peroxidase (HRP) as a macromolecule marker. […] The concentration-dependent inhibition of HRP permeability at different concentrations was assessed from the percent inhibition in the presence and absence of the PDE2 inhibitors and in the presence of 1 μM RP73401, 10 μM Motapizone and 100 nM ANP.
Inhibition of SNP- or ANP-Induced Permeability of HUVEC Monolayers:
HUVEC cells on 3 μm polycarbonate filters (Transwells) were preincubated with 1 μM RP73401 (to block PDE4) and 10 μM Motapizone (to block PDE3), 1 mM SNP or 100 nM ANP and test sample over 15 min and then stimulated with 1 U/ml thrombin. HRP passage into the lower wells was assessed after 60 min.

| SMILES | melting point | IC50 [1] [µM] |
| --- | --- | --- |
| COc1ccc(-c2nnc3c4ccccc4c(Nc4cccc(NS(=O)(=O)c5ccc(OC)cc5)c4)nn23)cc1 [Compound 10, 4-Methoxy-N-{3-[3-(4-methoxy-phenyl)-[1,2,4]triazolo[3,4-a]phthalazin-6-ylamino]-phenyl}-benzenesulfonamide] | 328 to 331 °C (dec.) | 0.000501 to 0.126 |
| COc1ccc(-c2nnc3c4ccccc4c(Nc4cccc(NS(=O)(=O)c5cccc(OC)c5)c4)nn23)cc1 [Compound 14, 3-Methoxy-N-{3-[3-(4-methoxy-phenyl)-[1,2,4]triazolo[3,4-a]phthalazin-6-ylamino]-phenyl}-benzenesulfonamide] | 328 to 332 °C | 0.000501 to 0.126 |
| COc1ccc(-c2nnc3c4ccccc4c(Nc4cccc(NS(=O)(=O)Cc5ccccc5)c4)nn23)cc1 [Compound 15, N-{3-[3-(4-Methoxy-phenyl)-[1,2,4]triazolo[3,4-a]phthalazin-6-ylamino]-phenyl}-1-phenyl-methanesulfonamide] | 289 to 292 °C | 0.000501 to 0.126 |
| COc1ccc(-c2nnc3c4ccccc4c(Nc4cccc(NS(=O)(=O)c5cccs5)c4)nn23)cc1 [Compound 17, Thiophene-2-sulfonic acid {3-[3-(4-methoxy-phenyl)-[1,2,4]triazolo[3,4-a]phthalazin-6-ylamino]-phenyl}-amide] | 327 to 331 °C | 0.000501 to 0.126 |
| COc1ccc(-c2nnc3c4ccccc4c(Nc4cccc(NS(C)(=O)=O)c4)nn23)cc1 [Compound 19, N-{3-[3-(4-Methoxyphenyl)-[1,2,4]triazolo[3,4-a]phthalazin-6-ylamino]-phenyl}-methanesulfonamide] | 304.9 °C | 0.000501 to 0.126 |
| COc1ccc(-c2nnc3c4ccccc4c(Nc4ccc(S(=O)(=O)Nc5ncccn5)cc4)nn23)cc1 [Compound 21, 4-[3-(4-Methoxyphenyl)-[1,2,4]triazolo[3,4-a]phthalazin-6-ylamino]-N-pyrimidin-2-yl-benzenesulfonamide] | > 350 °C | 0.000501 to 0.126 |
| COc1ccc(-c2nnc3c4ccccc4c(Nc4ccc(S(=O)(=O)N5CCOCC5)cc4)nn23)cc1 [Compound 22, [3-(4-Methoxyphenyl)-[1,2,4]triazolo[3,4-a]phthalazin-6-yl]-[4-(morpholine-4-sulfonyl)-phenyl]-amine] | 330 °C | 0.000501 to 0.126 |
| COc1ccc(-c2nnc3c4ccccc4c(Nc4cccc(S(=O)(=O)N5CCOCC5)c4)nn23)cc1 [Compound 25, [3-(4-Methoxyphenyl)-[1,2,4]triazolo[3,4-a]phthalazin-6-yl]-[3-(morpholine-4-sulfonyl)-phenyl]-amine] | 265.4 °C | 0.000501 to 0.126 |
| CN(C)c1ccccc1-c1nnc2c3ccccc3c(Nc3cccc(NS(=O)(=O)N(C)C)c3)nn12 [Compound 26] | 235 to 239 °C | 0.000501 to 0.126 |

The next lines start with results.

| melting point | SMILES | IC50 [1] [µM] |
| --- | --- | --- |
| 290 to 293 °C | CN(C)S(=O)(=O)c1cccc(Nc2nn3c(-c4ccc(Br)cc4)nnc3c3ccccc23)c1 [Compound 28, [3-(N,N-dimethylsulfamoyl)-phenyl]-[3-(4-bromo-phenyl)-[1,2,4]triazolo[3,4-a]phthalazin-6-yl]-amine] | 0.000501 to 0.126 |
| 292 to 295 °C | COc1ccc(-c2nnc3c4ccccc4c(Nc4cccc(S(=O)(=O)N5CCCC5)c4)nn23)cc1 [Compound 29, [3-(4-Methoxy-phenyl)-[1,2,4]triazolo[3,4-a]phthalazin-6-yl]-[3-(pyrrolidine-1-sulfonyl)-phenyl]-amine] | 0.000501 to 0.126 |
| 275 to 280 °C | COc1ccc(-c2nnc3c4ccccc4c(Nc4cccc(S(=O)(=O)N5CCCCC5)c4)nn23)cc1 [Compound 30, [3-(4-Methoxy-phenyl)-[1,2,4]triazolo[3,4-a]phthalazin-6-yl]-[3-(piperidine-1-sulfonyl)-phenyl]-amine] | 0.000501 to 0.126 |
| 252 to 256 °C | CN(C)S(=O)(=O)Nc1cccc(Nc2nn3c(-c4ccccc4F)nnc3c3ccccc23)c1 [Compound 31] | 0.000501 to 0.126 |
| 229 to 233 °C | COc1ccccc1-c1nnc2c3ccccc3c(Nc3cccc(NS(=O)(=O)N(C)C)c3)nn12 [Compound 32] | 0.000501 to 0.126 |
| 264 °C (dec.) | COc1ccc(-c2nnc3c4ccccc4c(Nc4cccc(NS(=O)(=O)N5CCOCC5)c4)nn23)cc1 [Compound 34, Morpholine-4-sulfonic acid {3-[3-(4-methoxy-phenyl)-[1,2,4]triazolo[3,4-a]phthalazin-6-ylamino]-phenyl}-amide] | 0.000501 to 0.126 |
